Test [1] has as its target T1, mouse CD38 (Mus musculus, UniProt P56528).
T1 sequence (P56528 1-304): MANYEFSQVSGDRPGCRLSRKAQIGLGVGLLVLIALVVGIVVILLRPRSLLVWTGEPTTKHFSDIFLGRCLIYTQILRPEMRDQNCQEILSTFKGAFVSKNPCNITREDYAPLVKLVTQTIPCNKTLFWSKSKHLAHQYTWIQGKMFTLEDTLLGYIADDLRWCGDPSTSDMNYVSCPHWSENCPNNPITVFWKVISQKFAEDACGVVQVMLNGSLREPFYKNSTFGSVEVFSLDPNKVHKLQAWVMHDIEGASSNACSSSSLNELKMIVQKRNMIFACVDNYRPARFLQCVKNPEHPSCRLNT
As to the kind of experiment: mouse recombinant CD38 enzyme assay (hydrolysis of NAD+). Type of test: biochemical. To be noted: read-out: mCD38 BioChem IC50. In outline:
(§1)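 Inhibitors were titrated against purified CD38 hydrolysing NAD+ for 60 min at ambient temperature. Unconsumed substrate was quantified enzymatically via NADH-coupled resazurin reduction and fluorescence.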

The target of test [2] is T2, human CD38 (Homo sapiens, UniProt P28907).
T2 sequence (P28907 1-300): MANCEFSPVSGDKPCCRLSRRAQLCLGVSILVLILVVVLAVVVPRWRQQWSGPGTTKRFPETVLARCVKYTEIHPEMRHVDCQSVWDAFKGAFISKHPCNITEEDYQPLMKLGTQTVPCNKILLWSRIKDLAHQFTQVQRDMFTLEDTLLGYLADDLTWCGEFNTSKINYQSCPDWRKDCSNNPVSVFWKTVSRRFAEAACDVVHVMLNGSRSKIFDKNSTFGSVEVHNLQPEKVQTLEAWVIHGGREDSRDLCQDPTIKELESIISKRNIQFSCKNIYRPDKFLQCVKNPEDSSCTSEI
As to the kind of experiment: human recombinant CD38 enzyme assay (hydrolysis of NAD+). Type of test: biochemical. To be noted: human recombinant CD38, 0.4 nM enzyme, 62.5 μM NAD+; read-out: hCD38 BioChem IC50. In outline: as §1

Test [3] has as its target T3, endogenous CD38 in HL60 cells (Homo sapiens, UniProt P28907).
T3 construct: endogenous in cells; host or cells: HL60 (leukemic cells, treated with all-trans retinoic acid)
T3 sequence (P28907 1-300): T2 sequence (P28907 1-300)
Nature of the test: cellular CD38 assay in HL60 cells (cellular NAD levels). Type of test: cell-based. Particulars: all-trans retinoic acid, 24 hours, read-out: hCD38 HL60 ATRA NAD Cell Diaphorase IC50. In outline: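 HL60 cells (20000/well) were treated with compound in DMSO for 24 h. Cellular NAD was then measured by an enzymatic cycling mix (alcohol dehydrogenase, diaphorase, 40 uM resazurin, 10 uM FMN, 3% ethanol, Triton X-100, pH 8.4).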

Among the data in US20230116972A1, “CD38 MODULATORS AND METHODS OF USE THEREOF” (Cytokinetics, Inc., priority 2021, published 2023) are IC50 values, retold here.

Take `CC(C)c1cc(C(=O)Nc2ccc(C(F)(F)F)nc2)nc(-c2cncn2C)n1` [Compound 174, 6-isopropyl-2-(1-methyl-1H-imidazol-5-yl)-N-(6-(trifluoromethyl)pyridin-3-yl)pyrimidine-4-carboxamide]: the IC50 (as a rule, the concentration that inhibits the measured activity by half) was 0.004 µM in test [1], 0.008 µM in test [2] and 1.78 µM in test [3].

As to `O=C(Nc1ccc(C(F)F)nc1)c1nc(C2CC2)cc(-n2ccnc2)n1` [Compound 205, 4-cyclopropyl-N-(6-(difluoromethyl)pyridin-3-yl)-6-(1H-imidazol-1-yl)pyrimidine-2-carboxamide], the IC50 in test [1] stood at 0.0016 µM; in test [2] it was 0.004 µM; in test [3], 0.41 µM.

Take `CC(C)c1cc(C(=O)N[C@H]2CC[C@H](C(F)F)CC2)nc(-c2cncn2C)n1` [Compound 172, N-((1r,4r)-4-(difluoromethyl)cyclohexyl)-6-isopropyl-2-(1-methyl-1H-imidazol-5-yl)pyrimidine-4-carboxamide]: the IC50 worked out at 0.005 µM in test [1], 0.021 µM in test [2] and 2.95 µM in test [3].

With `Cn1cncc1-c1nc(C(=O)N[C@H]2CC[C@H](OC(F)F)CC2)cc(C2CCOCC2)n1` [Compound 281, N-((1r,4r)-4-(difluoromethoxy)cyclohexyl)-2-(1-methyl-1H-imidazol-5-yl)-6-(tetrahydro-2H-pyran-4-yl)pyrimidine-4-carboxamide], the IC50 was 0.0013 µM in test [1], 0.0041 µM in test [2] and 1.33 µM in test [3].

Take `Cc1ncccc1NC(=O)c1cccc(-n2ccnc2)n1` [Compound 27, 6-(1H-imidazol-1-yl)-N-(2-methylpyridin-3-yl)picolinamide]: the IC50 amounted to 0.064 µM in test [1], 0.448 µM in test [2] and 10.4 µM in test [3].

Take `Cn1cncc1-c1ccnc(C(=O)Nc2ccc(OC3CC(F)(F)C3)nc2)n1` [Compound 319]: the results for the IC50 in test [1], in test [2] and in test [3] were 0.006 µM, 0.0036 µM and 0.964 µM, respectively.

For `O=C(N[C@H]1C[C@H](c2ccccc2F)C1)c1nccc(-n2ccnc2)n1` [Compound 236, N-((1r,3r)-3-(2-fluorophenyl)cyclobutyl)-4-(1H-imidazol-1-yl)pyrimidine-2-carboxamide], the IC50 in test [1] came to 0.0272 µM; in test [2], 0.0464 µM; in test [3], 1.87 µM.

Regarding `O=C(Nc1ccc(C(F)F)nc1)c1nc(O)cc(-n2ccnc2)n1` [Compound 216, N-(6-(difluoromethyl)pyridin-3-yl)-4-hydroxy-6-(1H-imidazol-1-yl)pyrimidine-2-carboxamide], the IC50 was found to be 0.0493 µM in test [1], 0.0666 µM in test [2] and 9.42 µM in test [3].

As to `Cn1cncc1-c1ccnc(C(=O)N[C@H]2C[C@H](Oc3ccccc3)C2)n1` [Compound 220, 4-(1-methyl-1H-imidazol-5-yl)-N-((1r,3r)-3-phenoxycyclobutyl)pyrimidine-2-carboxamide], the IC50 in test [1] was found to be 0.0522 µM; in test [2], 0.146 µM; in test [3] it was 4.95 µM.

With `Cn1cncc1-c1nc(C(=O)Nc2ccc(C(F)F)nc2)cc(C2CCOCC2)n1` [Compound 197, N-(6-(difluoromethyl)pyridin-3-yl)-2-(1-methyl-1H-imidazol-5-yl)-6-(tetrahydro-2H-pyran-4-yl)pyrimidine-4-carboxamide], the IC50 was 0.001 µM in test [1], 0.0045 µM in test [2] and 0.709 µM in test [3].

As to `CO[C@H]1CC[C@H](NC(=O)c2cc(C)cc(-n3ccnc3)n2)CC1` [Compound 96, 6-(1H-imidazol-1-yl)-N-(4-methoxycyclohexyl)-4-methylpicolinamide], the IC50 in test [1] was found to be 0.003 µM; in test [2], 0.023 µM; in test [3], 1.63 µM.

`COCCOc1cc(C(=O)Nc2ccc(C(F)F)nc2)nc(-c2cncn2C)n1` [Compound 307, N-(6-(difluoromethyl)pyridin-3-yl)-6-(2-methoxyethoxy)-2-(1-methyl-1H-imidazol-5-yl)pyrimidine-4-carboxamide]: the IC50 in test [1] is 0.001 µM; in test [2], 0.0015 µM; in test [3] it was 0.254 µM.

`CO[C@H]1CC[C@H](NC(=O)c2cc(C(F)(F)F)nc(-c3cncn3C)n2)CC1` [Compound 151, N-((1r,4r)-4-methoxycyclohexyl)-2-(1-methyl-1H-imidazol-5-yl)-6-(trifluoromethyl)pyrimidine-4-carboxamide]: the values for the IC50 in test [1], in test [2] and in test [3] were 0.001 µM, 0.014 µM and 1.97 µM, respectively.

On to `O=C(Nc1ccc(C(F)F)nc1)c1ccnc(-c2cncs2)n1` [Compound 114, N-(6-(difluoromethyl)pyridin-3-yl)-2-(thiazol-5-yl)pyrimidine-4-carboxamide], for which the IC50 came out at 0.15 µM in test [1], 0.173 µM in test [2] and 4.33 µM in test [3].

For the molecule `Cn1cncc1-c1cncc(C(=O)N[C@H]2CC[C@H](C(F)F)CC2)n1` [Compound 92, N-((1r,4r)-4-(difluoromethyl)cyclohexyl)-6-(1-methyl-1H-imidazol-5-yl)pyrazine-2-carboxamide], the IC50 was determined as 0.013 µM in test [1], 0.022 µM in test [2] and 1.18 µM in test [3].

Regarding `COc1cc(C(=O)N[C@H]2CC[C@H](OC)CC2)nc(-c2cncs2)n1` [Compound 130, 6-methoxy-N-((1r,4r)-4-methoxycyclohexyl)-2-(thiazol-5-yl)pyrimidine-4-carboxamide], the IC50 in test [1] came out at 0.044 µM; in test [2], 0.488 µM; in test [3] it was 10.3 µM.

With `Cc1cc(NC(=O)c2cccc(-c3cncs3)n2)ccn1` [Compound 52, N-(2-methylpyridin-4-yl)-6-(thiazol-5-yl)picolinamide], the values for the IC50 in test [1], in test [2] and in test [3] were 0.292 µM, 0.678 µM and 11.4 µM, respectively.

`O=C(NC1CCC(F)(F)CC1)c1cccc(-n2ccnc2)n1` [Compound 136, N-(4,4-difluorocyclohexyl)-6-(1H-imidazol-1-yl)picolinamide]: the IC50 was 0.006 µM in test [1], 0.023 µM in test [2] and 1.54 µM in test [3].

For `COc1cc(C(=O)Nc2ccc(C(F)F)nc2)nc(-c2cncn2C)c1` [Compound 225, N-(6-(difluoromethyl)pyridin-3-yl)-4-methoxy-6-(1-methyl-1H-imidazol-5-yl)picolinamide], the figures for the IC50 in test [1], in test [2] and in test [3] were 0.0038 µM, 0.007 µM and 1.08 µM, respectively.

For `O=C(Nc1ccc(C(F)F)nc1)c1nccc(-n2ccnc2)n1` [Compound 144, N-(6-(difluoromethyl)pyridin-3-yl)-4-(1H-imidazol-1-yl)pyrimidine-2-carboxamide], the IC50 in test [1] came out at 0.014 µM; in test [2], 0.003 µM; in test [3] it was 0.129 µM.

With `Cn1cncc1-c1ccnc(C(=O)N[C@H]2CC[C@](O)(c3ccccc3)CC2)n1` [Compound 252, N-((1s,4s)-4-hydroxy-4-phenylcyclohexyl)-4-(1-methyl-1H-imidazol-5-yl)pyrimidine-2-carboxamide], the IC50 in test [1] was 0.184 µM; in test [2], 0.255 µM; in test [3], 4.88 µM.

For `CO[C@@H]1CC[C@@H](NC(=O)c2cccc(-n3ccnc3)n2)C1` [Compound 57, 6-(1H-imidazol-1-yl)-N-(3-methoxycyclopentyl)picolinamide], the values for the IC50 in test [1], in test [2] and in test [3] were 0.036 µM, 0.187 µM and 4.55 µM, respectively.

As for `Cn1cncc1-c1ccnc(C(=O)N[C@H]2C[C@@H](c3ccccc3)C2)n1` [Compound 214, 4-(1-methyl-1H-imidazol-5-yl)-N-((1s,3s)-3-phenylcyclobutyl)pyrimidine-2-carboxamide], the results for the IC50 in test [1], in test [2] and in test [3] were 0.0529 µM, 0.323 µM and 9.86 µM, respectively.

With `Cn1cncc1-c1cccc(C(=O)Nc2ccc(C(F)(F)F)nc2)n1` [Compound 71, 6-(1-methyl-1H-imidazol-5-yl)-N-(6-(trifluoromethyl)pyridin-3-yl)picolinamide], the IC50 amounted to 0.025 µM in test [1], 0.015 µM in test [2] and 1.44 µM in test [3].

For `Cn1cncc1-c1nccc(C(=O)Nc2ccc(C(F)(F)F)nc2)n1` [Compound 69, 2-(1-methyl-1H-imidazol-5-yl)-N-(6-(trifluoromethyl)pyridin-3-yl)pyrimidine-4-carboxamide], the IC50 in test [1] stood at 0.002 µM; in test [2] it was 0.003 µM; in test [3] it was 0.481 µM.
